Source: patent publication US12239125B2, “Compositions for organ preservation” (SigmaDrugs Kutató Korlátolt Felelösségü Társaság, priority 2016, dated 2025)
Structures can show the parent of a compound that is named as a salt.

What was measured:
PCP receptors = conditions: cited from earlier work
isolated kidney = test: Rat model of kidney cold ischemia (cold perfusion and storage of isolated kidney); conditions: for mRNA levels of BAX / mRNA levels of Bcl-2: stored kidneys; for mRNA levels of BAX: difference not statistically significant; for reducing, delaying or preventing functional and/or structural damage of a stored organ or tissue (comparison of the three agonists): fluvoxamine, SA-4503 and PRE-84 compared
Protocol: Male Wistar rats were anesthetized with isoflurane (3% vol/vol) mixed with synthetic air (1 L/min) before surgery and placed on a temperature-controlled table to maintain core body temperature. Kidneys (n=6/group) were washed through the renal arteries with 5 ml cold solution, then removed from the animal and placed into a container filled with the same solution for either 2 or 3 hours. […] 3h CP); (viii) Custodiol containing 0.003 mg/mL FLU, 3 hours of cold perfusion (Cust. […] After cold ischemia kidneys were immediately snap-frozen in liquid nitrogen and stored at −80° C. or fixed in buffered 8% formalin for further processing.
Kidneys were fixed in 8% formalin, embedded into paraffin and 5 μm sections were stained with periodic acid-Schiff (PAS) to assess tubular injury. Images were taken with Panoramic Viewer (3[…] Ltd., Budapest, Hungary). Tubular luminal areas were measured in three fields of magnification ×200 per rat. The analysis was performed in a double-blinded fashion with computer-assisted morphometry using Adobe Photoshop CS6 (Adobe Systems Corporation, San José, Calif., USA) and Image J (National Institute of Health, Bethesda, MD, USA) softwares on a Zeiss Axiolmager A1 light-microscope (Carl Zeiss A G, Jena, Germany).
Total RNA was isolated from kidneys with GeneAid Total RNA Mini Kit (Geneaid Biotech Ltd., New Taipei City, Taiwan). 500 ng RNA was reverse-transcribed using Maxima First Strand cDNA Synthesis Kit for RT-qPCR (Thermo Scientific, Waltham, MA, USA) to generate first-strand cDNA. mRNA expressions of Ngal (Lcn2), Kim1, Mcp1, IL-1α (Il1α), IL-6 (Il6), IL-10 (Il10), TNF-α (Tnf), HO-1 (Hmox1), Bax, Bcl-2 (Bcl2), 18S ribosomal RNA (Rn18s) and β-actin (Actb) were determined with real-time RT-PCR using Light Cycler 480 SYBR Green 1 Master enzyme mix on a Light Cycler system (Roche Diagnostics, Mannheim, Germany). The reaction mix contained 10 pmol/μl of each PCR primer (Table 1; Integrated DNA Technologies Inc., Coralville, IA, USA), 10 μl of Light Cycler 480 SYBR Green 1 Master enzyme mix and 1 μl of cDNA sample. The conditions of the PCRs were as follows: 1 cycle at 95° C. for 5 minutes, followed by 70 cycles under the appropriate PCR conditions. Quantification was performed with the second-derivative method by monitoring the cycle number at which the fluorescent sign could be distinguished from the background. Results were analyzed with Light Cycler 480 software version 1.5.0.39 (Roche Diagnostics, Mannheim, Germany). The mRNA expression of each gene was determined by comparison to 18S ribosomal RNA as housekeeping gene from the same sample.
All reagents for Western blotting were purchased from Bio-Rad Laboratories, Hercules, CA, USA unless stated otherwise. Tissue samples were lysed in buffer containing leupeptin, aprotinin, Triton X-100, Tris-HCl, Ethylene glycol-bis (2-aminoethylether),N,N,N′,N′-tetraacetic-acid, NaF, Phenylmethylsulphonylfluoride and Na-orthovanadate (each substance were purchased from Sigma-Aldrich Co., St. Louis, MO, USA). Protein concentrations were determined using Bradford assay. […] Pre-stained protein mixture was used as marker of molecular mass. The separated proteins were transferred into nitrocellulose membranes. Non-specific binding sites were blocked in 5% non-fat dry milk containing blot solution. Membranes were incubated with monoclonal antibody specific to rat cleaved caspase-3 (Asp175) (Cell Signaling Technology, Danvers, MA, USA) diluted to 1:1000. Blots were washed and incubated (1 hour, room temperature) with peroxidase-conjugated goat anti-rabbit IgG secondary antibody (Cell Signaling Technology, Danvers, MA, USA) diluted to 1:4000. […] Bands were analyzed with Quantity One software version 4.6.9. Protein abundance was represented as Integrated Optical Density (IOD)/Ponceau S compared to controls.
Data were analyzed using GraphPad Prism software (GraphPad Software Inc., La Jolla, CA, USA).

[1] = test system: mitochondrial functions (liver); conditions: administered to rats or used in the preservation liquid of isolated liver; cited from earlier work
autotransplanted kidney = test: Rat model of kidney isograft autotransplantation (ATx) after cold storage in preservation solution; assay type: in vivo; conditions: for Kidney function / serum AST levels / serum creatinine levels: vs preservation solution without S1R agonist; for NGAL levels: compared to Custodiol; for Tubular lumen areas (tubular dilatation): vs standard preservation solution, PAS-stained sections
Protocol: The institutional committee on animal welfare approved all experiments. Experiments were performed on Male Wistar rats weighing 205±15 g (Toxi-Coop Toxicological Research Center, Dunakeszi, Hungary). Animals were housed in a temperature-controlled (22±1° C.) room with alternating light and dark cycles and had free access to standard rat chow and water. Male Wistar rats (n=8/group) were anesthetized with isoflurane (3% vol/vol) mixed with synthetic air (1 L/min) before surgery and placed on a temperature-controlled table to maintain core body temperature. Left kidneys were perfused with cold Custodiol perfusion solution (Na^+: 15 mmol/L; K^+: 9 mmol/L; Mg^2+: 4 mmol/L; Ca^2+: 0.015 mmol/L; histidine: 198 mmol/L; tryptophan: 2 mmol/L; ketoglutarate: 1 mmol/L; mannitol: 30 mmol/L) (Franz Kohler Chemie GMBH, Bensheim, Germany), then removed from the animal: kidneys were placed into a container for 2 hours filled with either (i) cold Custodiol perfusion solution (ATx) or (ii) cold Custodiol perfusion solution containing 0.003 mg/mL FLU (ATx FLU) or (iii) cold Custodiol perfusion solution containing 0.003 mg/mL SA4503 (ATx SA). After 2 hours kidneys were placed back into the rats and end-to-end anastomoses of the renal artery, vein and ureter were performed. […] Total warm ischemia time was 35 min in all animals. Sham operated animals served as controls. After 24 hours of reperfusion, blood samples were collected from the abdominal aorta, the remnant kidneys were harvested, instantly snap-frozen in liquid nitrogen, and stored at -80° C. or fixed in buffered 8% formalin for further processing. The experimental design of the autotransplantation is shown in FIG. 9 Metabolic (glucose, fructosamine, total and HDL-cholesterol, triglycerides) and renal functional parameters from rat sera (sodium, potassium, creatinine, blood urea nitrogen (BUN), aspartate transaminase (AST)) were determined with commercially available kits on a Hitachi 912 photometric chemistry analyzer. Kidneys were fixed in 8% formalin, embedded into paraffin and 5 μm sections were stained with periodic acid-Schiff (PAS) to assess tubular injury. Images were taken with Panoramic Viewer (3[…] Ltd., Budapest, Hungary). Tubular luminal areas were measured in three fields of magnification ×200 per rat. The analysis was performed in a double-blinded fashion with computer-assisted morphometry using Adobe Photoshop CS6 (Adobe Systems Corporation, San José, Calif., USA) and Image J (National Institute of Health, Bethesda, MD, USA) softwares on a Zeiss Axiolmager A1 light-microscope (Carl Zeiss A G, Jena, Germany). Formalin-fixed kidney samples were embedded into paraffin. 5 μm thick sections were mounted on Superfrost slides (Thermo Shandon, Runcorn, UK) and were manually deparaffinized. Assay was performed using the Apoptag® Peroxidase In situ Apoptosis Detection Kit (Millipore, Billerica, MA, USA). Briefly, samples were pretreated with Proteinase K for 15 min. Following repeated washing steps endogenous peroxidase activity was blocked by 3% H2O2 in methanol for 5 min at room temperature. Next, slides were incubated in reaction buffer containing 30% TdT enzyme for 1 hour at room temperature after which Stop buffer was added. Slides were incubated with anti-Dioxigenin Conjugate for 30 min at room temperature. Slides were developed using DAB peroxidase substrate. The areas of TUNEL-positive apoptotic nuclei were measured in three fields of magnification ×200 per rat. The analysis was performed using Adobe Photoshop CS6 (Adobe Systems Corporation, San José, Calif., USA) and Image J (National Institute of Health, Bethesda, MD, USA) softwares on a Zeiss Axiolmager A1 light-microscope (Carl Zeiss A G, Jena, Germany). Formalin-fixed kidney samples were embedded into paraffin. One to two micron thick sections were mounted on Superfrost slides (Thermo Shandon, Runcorn, UK) and were manually deparaffinized. Endogenous peroxidase activity was blocked by 3% H2O2 in methanol for 20 min at room temperature. […]

[2] = isolated kidneys stored in Custodiol, vs vehicle
[3] = 2 h cold storage in Custodiol with 0.003 mg/mL compound, ATx, 24 hours of reperfusion
[4] = transplantation after storage, vs vehicle
[5] = stored and subsequently transplanted kidney

Question: Which IC50 (PCP receptors) does the source give for `O=C(OCCN1CCOCC1)C1(c2ccccc2)CCCCC1` [PRE-084, 2-morpholin-4-dylethyl 1-phenylcyclohexane-1-carboxylate] here?
Answer: > 100 µM

Question: And the KIM-1 levels (isolated kidney; [2])?
Answer: inhibited the increase of KIM-1

Question: And the “mRNA levels of BAX” value (isolated kidney)?
Answer: decreased

Question: For `COc1ccc(CN2CCN(Cc3ccccc3)CC2)c(O)c1OC` [BHDP, N-benzyl-N′-(2-hydroxy-3,4-dimethoxybenzyl)-piperazine], which mitochondrial functions [1] is on record?
Answer: protected mitochondrial functions

Question: Which “KIM-1 levels: effect of adding S1R antagonist to fluvoxamine” value (isolated kidney) does the source give for `CCCN(CCC)CCc1ccc(OC)c(OCCc2ccccc2)c1` [NE100, N-dipropyl-2-[4-methoxy-3-(2-phenylethoxy)-phenyl]-ethylamine monohydrochloride] here?
Answer: diminished the protective effect of fluvoxamine

Question: For `COc1ccc(CCN2CCN(CCCc3ccccc3)CC2)cc1OC` [SA 4503, 1-[2-(3,4-Dimethoxyphenyl)ethyl]-4-(3-phenylpropyl)piperazine], which “BUN (Blood urea nitrogen) levels” value (autotransplanted kidney; [3]) is on record?
Answer: significantly decreased

Question: What about the Kidney function (autotransplanted kidney; [3]) of the same molecule?
Answer: substantially improved

Question: And the “serum AST levels” value (autotransplanted kidney; [3])?
Answer: lower

Question: And the serum creatinine levels (autotransplanted kidney; [3])?
Answer: lower

Question: And the NGAL levels (autotransplanted kidney; transplantation after storage)?
Answer: significantly decreased

Question: And the “Tubular lumen areas (tubular dilatation)” value (autotransplanted kidney; transplantation after storage)?
Answer: significantly smaller

Question: And the KIM-1 expression levels (autotransplanted kidney; [4])?
Answer: significantly lower expression

Question: What about the KIM-1 levels (isolated kidney; [2]) of the same molecule?
Answer: inhibited the increase of KIM-1

Question: What about the “mRNA levels of Bcl-2” value (isolated kidney) of the same molecule?
Answer: no such effect

Question: What about the “mRNA levels of BAX” value (isolated kidney) of the same molecule?
Answer: decreased

Question: What does the source list for `COCCCC/C(=N\OCCN)c1ccc(C(F)(F)F)cc1` [fluvoxamine, fluvoxamine maleate]?
Answer: Kidney function (autotransplanted kidney; [3]): substantially improved; serum AST levels (autotransplanted kidney; [3]): lower; serum creatinine levels (autotransplanted kidney; [3]): lower; Levels of MCP-1 (autotransplanted kidney; autotransplanted kidneys, vs vehicle): significantly less elevated; mRNA levels of inflammatory cytokines (IL10, IL-1α, TNFα) (autotransplanted kidney; [5]): decreased; protein levels of inflammatory cytokines (IL10, IL-1α, TNFα) (autotransplanted kidney; [5]): decreased; NGAL levels (autotransplanted kidney; transplantation after storage): significantly decreased; histological damage on PAS-stained kidney sections (autotransplanted kidney; transplantation after storage, vs conventional preservation fluid (vehicle)): milder histological damage; Tubular lumen areas (tubular dilatation) (autotransplanted kidney; transplantation after storage): significantly smaller; Tubular lumen areas (tubular dilatation) (autotransplanted kidney; transplantation after storage, listed as FLU): less dilated; BAX expression (mRNA) (autotransplanted kidney; [4]): significant decrease; KIM-1 expression levels (autotransplanted kidney; [4]): significantly lower expression; increase of HO-1 expression (autotransplanted kidney; [4]): prevented; mRNA levels of Bcl-2 (autotransplanted kidney; [4]): significant increase; apoptotic cells in TUNEL assay (autotransplanted kidney; transplantation after storage, vs vehicle treated kidneys): significantly less apoptotic cells; structural damage after prolonged cold ischemia (isolated kidney; 3, 8 or 24 hours of cold ischemia with Flu vs 2 hours ischemia without Flu): less pronounced; increase of tubular damage (tubular lumen areas) from 2 to 3 hours of cold storage (isolated kidney; Custodiol, 2 and 3 hours of cold storage): inhibited this increase of damage; less tissue damage by histologic assay (isolated kidney; after 1.5 fold longer or even 10 fold longer preservation time than organs in same solution without fluvoxamine): 25%; MCP-1 levels (isolated kidney; after storage, vs conventional Custodiol): less elevated; Tubular lumen dilatation (isolated kidney; cold storage without reperfusion, compound 0.003 mg/mL in preservation solution vs solution alone): less dilated; reducing, delaying or preventing functional and/or structural damage of a stored organ or tissue (comparison of the three agonists) (isolated kidney): surprisingly more effective than SA 4503; reducing, delaying or preventing functional and/or structural damage of a stored organ or tissue (comparison of the three agonists) (isolated kidney; listed as Fluvoxamine): most successful of the three compounds; KIM-1 levels (isolated kidney; [2]): decreased dramatically; kidney structure on PAS-stained sections (isolated kidney; perfused with FLU, harvested after 2 hours of cold ischemia): better preserved; KIM-1 levels (isolated kidney; saline): milder, though a tendency of decrease is noticed; NGAL mRNA expression (isolated kidney; saline): Efficacy of fluvoxamine in saline was also demonstrated; mRNA levels of Bcl-2 (isolated kidney): markedly increased; mRNA levels of BAX (isolated kidney): decreased
